Patent publication US11414425B2 (priority 2018, dated 2022)
Read-outs that look alike come from different tables or passages of the source.

Key:
α5β3γ2 GABAA receptors = α5β3γ2 GABAA receptors (Homo sapiens, UniProt P18507+P31644); assay: [3H]Ro15-1788 binding, membranes of Ltk cells stably expressing α5β3γ2 GABAA receptors
GABAA receptors (α5β2γ2) = biological target: T1, GABAA receptors (α5β2γ2) (Homo sapiens, UniProt P18507+P31644); assay: Positive allosteric modulator activity: potentiation of EC20 GABA current in oocytes; assay type: cell-based; details: read-out: GABA α5 Functional Data (potentiation of EC20 GABA)
T1 construct: expressed in transfected cells
Protocol: On day 1, 1 ng/32 nL of GABAA α5β2γ2 cDNA was injected into one oocyte. Test starts on day 2. The cDNA injected to the oocytes was a mix of alpha, beta and gamma, their ratio is 1:1:10 (by weight) and the total weight of the mixed 3 subunits to be injected in one oocyte was 1 ng in 32 nl volume. The injected oocytes can also be tested on day 3. In such case, the cDNA amount injected to the oocytes should be reduced by 20%.
1). 8 oocytes were placed in 8 chambers of OpusXpress and superfused with Modified Barth's Saline (MBS) at 3 mL/min. Glass electrodes back-filled with 3M KCl (0.5-3 megaohms) were used.
1). New oocytes were used to run new test.
3). […] Oocytes were washed with MBS for 5-10 min.
4). […] Itest was divided by IGABA to obtain potentiation (%).
Test Compounds at Multiple Doses • 1). Repeat the above steps 1), 2) and 3) in the control test. • 2). […] Divide Itest by IGABA to obtain potentiation (%). • 3). Discard all tested oocytes, new oocytes were used and the above steps 1) and 2) were repeated to test second concentration of the same compound. Each oocyte was used for only one concentration test for a single test compound. The steps were repeated for other test compounds.

[1] = ranges, inhibition of [3H]Ro15-1788 binding

Sequence of α5β3γ2 GABAA receptors (P31644 32-462): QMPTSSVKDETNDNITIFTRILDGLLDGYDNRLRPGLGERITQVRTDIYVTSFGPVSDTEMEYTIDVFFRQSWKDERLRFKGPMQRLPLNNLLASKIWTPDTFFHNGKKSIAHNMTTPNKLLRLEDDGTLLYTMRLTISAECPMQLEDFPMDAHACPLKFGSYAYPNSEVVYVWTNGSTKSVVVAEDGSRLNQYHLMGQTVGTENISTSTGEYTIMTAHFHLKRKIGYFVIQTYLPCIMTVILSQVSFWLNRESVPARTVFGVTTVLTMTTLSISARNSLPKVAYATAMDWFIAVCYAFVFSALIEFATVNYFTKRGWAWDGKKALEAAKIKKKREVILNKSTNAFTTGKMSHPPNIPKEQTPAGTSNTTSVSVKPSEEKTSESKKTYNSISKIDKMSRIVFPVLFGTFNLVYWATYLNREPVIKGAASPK
Sequence of α5β3γ2 GABAA receptors (P28472 26-473 partner): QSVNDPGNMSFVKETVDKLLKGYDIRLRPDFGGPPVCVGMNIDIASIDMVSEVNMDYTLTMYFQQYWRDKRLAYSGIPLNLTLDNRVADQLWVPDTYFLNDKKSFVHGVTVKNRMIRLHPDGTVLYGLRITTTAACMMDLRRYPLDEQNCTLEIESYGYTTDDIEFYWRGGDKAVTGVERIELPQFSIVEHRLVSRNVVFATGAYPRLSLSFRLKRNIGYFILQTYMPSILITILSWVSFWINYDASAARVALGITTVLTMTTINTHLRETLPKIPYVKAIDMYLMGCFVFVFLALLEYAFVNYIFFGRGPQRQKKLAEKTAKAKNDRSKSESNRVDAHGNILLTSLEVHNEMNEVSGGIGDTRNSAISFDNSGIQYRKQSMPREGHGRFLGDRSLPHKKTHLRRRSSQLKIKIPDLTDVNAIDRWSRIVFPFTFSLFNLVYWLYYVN
Sequence of α5β3γ2 GABAA receptors (P18507 40-475): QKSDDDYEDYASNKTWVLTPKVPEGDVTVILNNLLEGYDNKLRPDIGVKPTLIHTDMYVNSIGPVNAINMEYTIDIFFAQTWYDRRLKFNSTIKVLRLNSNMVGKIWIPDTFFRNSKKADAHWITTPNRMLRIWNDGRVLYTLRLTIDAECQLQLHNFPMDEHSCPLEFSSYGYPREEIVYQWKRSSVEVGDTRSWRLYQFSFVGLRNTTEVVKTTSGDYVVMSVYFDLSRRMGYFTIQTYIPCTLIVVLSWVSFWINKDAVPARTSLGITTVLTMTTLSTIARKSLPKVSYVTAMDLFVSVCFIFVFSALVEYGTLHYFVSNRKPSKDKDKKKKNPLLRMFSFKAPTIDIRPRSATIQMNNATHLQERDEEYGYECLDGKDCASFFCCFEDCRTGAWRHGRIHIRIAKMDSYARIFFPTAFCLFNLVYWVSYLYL
T1 sequence (P31644 32-462): as the sequence (P31644 32-462) above
T1 sequence (P47870 25-512, further chain): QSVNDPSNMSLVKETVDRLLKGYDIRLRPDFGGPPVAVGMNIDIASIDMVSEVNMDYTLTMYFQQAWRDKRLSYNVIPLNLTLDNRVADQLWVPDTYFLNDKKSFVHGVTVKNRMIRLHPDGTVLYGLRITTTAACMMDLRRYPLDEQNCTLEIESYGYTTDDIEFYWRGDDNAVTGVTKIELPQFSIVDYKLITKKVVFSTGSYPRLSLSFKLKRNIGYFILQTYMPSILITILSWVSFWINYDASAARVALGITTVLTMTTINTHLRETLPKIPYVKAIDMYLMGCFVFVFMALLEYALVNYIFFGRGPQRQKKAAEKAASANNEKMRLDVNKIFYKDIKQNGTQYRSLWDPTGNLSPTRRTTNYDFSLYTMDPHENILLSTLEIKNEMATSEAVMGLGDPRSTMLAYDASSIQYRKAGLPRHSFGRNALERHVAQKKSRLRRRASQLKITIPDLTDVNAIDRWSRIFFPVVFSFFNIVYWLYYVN
T1 sequence (P18507 40-475): as the sequence (P18507 40-475) above

| SMILES | Ki (α5β3γ2 GABAA receptors; [1]) | activation at 0.1 µM (GABAA receptors (α5β2γ2); @ 100 nM, ranges) | Ki (α5β3γ2 GABAA receptors) | activation at 0.1 µM (GABAA receptors (α5β2γ2)) |
| --- | --- | --- | --- | --- |
| COCc1nnc2n1Cc1c(C#Cc3cnc(OC)c(C)c3)ncn1-c1ccc(Cl)cc1-2 [Compound 698] | < 100 nM | 5 to 20% | – | – |
| COCc1nnc2n1Cc1c(C#Cc3ccnn3C)ncn1-c1ccc(Cl)cc1-2 [Compound 682] | < 100 nM | > 50% | – | – |
| COCc1nnc2n1Cc1c(C3=NC(C)CO3)ncn1-c1ccc(Cl)cc1-2 (centres unmarked) [Compound 243] | < 100 nM | 20 to 50% | – | – |
| COCc1nnc2n1Cc1c(C#Cc3cncc(OC)c3)ncn1-c1ccc(OC)cc1-2 [Compound 566] | < 100 nM | 5 to 20% | – | – |
| COCc1nnc2n1Cc1c(C#Cc3ccnc(OC)c3)ncn1-c1ccc(OC)cc1-2 [Compound 567] | < 100 nM | 5 to 20% | – | – |
| COCc1nnc2n1Cc1c(C#Cc3ccc4nccn4c3)ncn1-c1ccc(Cl)cc1-2 [Compound 678] | < 100 nM | 20 to 50% | – | – |
| CC(C)c1noc(-c2ncn3c2Cc2c(Cc4ccc(F)cc4)nnn2-c2cc(OC(F)F)ccc2-3)n1 [Compound 494] | < 100 nM | 20 to 50% | – | – |
| COc1ccc2c(c1)-n1nncc1Cc1c(C#Cc3cnc(C)n3C)ncn1-2 [Compound 667] | < 100 nM | > 50% | – | – |
| COc1ccc2c(c1)-n1nncc1Cc1c(C#Cc3cncc(C)c3)ncn1-2 [Compound 617] | < 100 nM | 5 to 20% | – | – |
| COCc1nnc2n1Cc1c(C#Cc3cnc(C)cn3)ncn1-c1ccc(Cl)cc1-2 [Compound 582] | < 100 nM | > 50% | – | – |
| COCc1nnc2n1Cc1c(C3=NC[C@H](c4ccc(Cl)cc4)O3)ncn1-c1ccc(Cl)cc1-2 [Compound 718] | < 100 nM | 20 to 50% | – | – |
| COc1ccc2c(c1)-n1nncc1Cc1c(C#Cc3cnc(C)[nH]3)ncn1-2 [Compound 668] | < 100 nM | > 50% | – | – |
| Clc1ccc2c(c1)-n1nncc1Cc1c(-c3noc(-c4ccccc4)n3)ncn1-2 [Compound 537] | < 100 nM | 20 to 50% | – | – |
| Cc1noc(-c2ncn3c2Cc2cnnn2-c2cc(-c4ccccc4)ccc2-3)n1 [Compound 474] | < 100 nM | 5 to 20% | – | – |
| COCc1nnc2n1Cc1c(C#Cc3cnc(OC)s3)ncn1-c1ccc(OC)cc1-2 [Compound 619] | < 100 nM | 5 to 20% | – | – |
| COCc1nnc2n1Cc1c(C#Cc3ccc(OC)cn3)ncn1-c1ccc(OC)cc1-2 [Compound 603] | < 100 nM | > 50% | – | – |
| COCc1nnc2n1Cc1c(C#Cc3ccc(OC)cc3)ncn1-c1ccc(Cl)cc1-2 [Compound 526] | < 100 nM | 5 to 20% | – | – |
| Clc1ccc2c(c1)-n1nncc1Cc1c(-c3cn(Cc4ccccc4)nn3)ncn1-2 [Compound 523] | < 100 nM | 5 to 20% | – | – |
| C#Cc1ccc2c(c1)-c1nnc(COC)n1Cc1c(C3=N[C@@H](c4ccccc4)CO3)ncn1-2 [Compound 301] | < 100 nM | 5 to 20% | – | – |
| COCc1nnc2n1Cc1c(C#Cc3ccc(C)nc3)ncn1-c1ccc(OC)cc1-2 [Compound 561] | < 100 nM | 20 to 50% | – | – |

| SMILES | Ki (α5β3γ2 GABAA receptors; [1]) | activation at 0.1 µM (GABAA receptors (α5β2γ2); @ 100 nM, ranges) | Ki (α5β3γ2 GABAA receptors) | activation at 0.1 µM (GABAA receptors (α5β2γ2)) |
| --- | --- | --- | --- | --- |
| COCc1nnc2n1Cc1c(C#Cc3ccc(OC)cn3)ncn1-c1ccc(Cl)cc1-2 [Compound 528] | < 100 nM | > 50% | – | – |
| Cc1nnc(-c2ncn3c2Cc2cnnn2-c2cc(Cl)ccc2-3)o1 [Compound 508] | < 100 nM | 5 to 20% | – | – |
| COCc1nnn2c1Cc1c(C#Cc3cnc(OC)s3)ncn1-c1ccc(Cl)cc1-2 [Compound 644] | < 100 nM | 20 to 50% | – | – |
| Cc1nc(-c2ncn3c2Cc2c(Cc4ccc(F)cc4)nnn2-c2cc(C(F)(F)F)ccc2-3)no1 [Compound 493] | < 100 nM | 5 to 20% | – | – |
| COCc1nnc2n1Cc1c(C#Cc3cncc(OC)c3)ncn1-c1ccc(Cl)cc1-2 [Compound 559] | < 100 nM | 5 to 20% | – | – |
| Clc1ccc2c(c1)-n1nncc1Cc1c(COCc3ccccc3)ncn1-2 [Compound 544] | < 100 nM | 5 to 20% | – | – |
| COc1ccc(C#Cc2ncn3c2Cn2c(COC(F)F)nnc2-c2cc(Cl)ccc2-3)cn1 [Compound 616] | < 100 nM | 5 to 20% | – | – |
| COCc1nnc2n1Cc1c(C#Cc3ccc(OC)nc3)ncn1-c1ccc(OC)cc1-2 [Compound 703] | < 100 nM | 20 to 50% | – | – |
| Cc1nnc(-c2ncn3c2Cc2cnnn2-c2cc(Cl)ccc2-3)s1 [Compound 509] | – | – | < 100 nM | 20 to 50% |
| COc1ccc2c(c1)-n1nncc1Cc1c(C#CC(C)(C)C)ncn1-2 [Compound 535] | < 100 nM | 5 to 20% | – | – |
| COCc1nnc2n1Cc1c(C#Cc3cnc(C)s3)ncn1-c1ccc(OC)cc1-2 [Compound 597] | < 100 nM | > 50% | – | – |
| COc1ccc2c(c1)-n1nncc1Cc1c(C3=NCC(c4ccccn4)O3)ncn1-2 (centres unmarked) [Compound 628] | < 100 nM | 20 to 50% | – | – |
| Cc1noc(-c2ncn3c2Cc2c(Cc4cccc(F)c4)nnn2-c2cc(OC(F)(F)F)ccc2-3)n1 [Compound 485] | < 100 nM | 5 to 20% | – | – |
| COCc1nnc2n1Cc1c(C#Cc3ccc(OC(C)C)nc3)ncn1-c1ccc(OC)cc1-2 [Compound 711] | < 100 nM | 5 to 20% | – | – |
| COCc1nnc2n1Cc1c(C#Cc3cnc(C)[nH]3)ncn1-c1ccc(Cl)cc1-2 [Compound 681] | < 100 nM | > 50% | – | – |
| COCc1nnc2n1Cc1c(C#Cc3cnc4occc4c3)ncn1-c1ccc(Cl)cc1-2 [Compound 680] | < 100 nM | 20 to 50% | – | – |
| COc1ccc2c(c1)-n1nncc1Cc1c(C3=N[C@@H](c4ccc(F)cc4)CO3)ncn1-2 [Compound 367] | < 100 nM | 5 to 20% | – | – |
| COCc1nnc2n1Cc1c(C#Cc3ccc(=O)n(C)c3)ncn1-c1ccc(OC)cc1-2 [Compound 676] | < 100 nM | 5 to 20% | – | – |
| CC(C)c1noc(-c2ncn3c2Cc2c(Cc4cccc(F)c4)nnn2-c2cc(Cl)ccc2-3)n1 [Compound 481] | < 100 nM | 5 to 20% | – | – |
| FC(F)(F)c1ccc(C#Cc2ncn3c2Cc2cnnn2-c2cc(Cl)ccc2-3)nc1 [Compound 701] | < 100 nM | 5 to 20% | – | – |

| SMILES | Ki (α5β3γ2 GABAA receptors; [1]) | activation at 0.1 µM (GABAA receptors (α5β2γ2); @ 100 nM, ranges) | Ki (α5β3γ2 GABAA receptors) | activation at 0.1 µM (GABAA receptors (α5β2γ2)) |
| --- | --- | --- | --- | --- |
| CC(C)c1nc(-c2ncn3c2Cc2cnnn2-c2cc(Cl)ccc2-3)no1 [Compound 538] | < 100 nM | 20 to 50% | – | – |
| COc1ccc([C@@H]2COC(c3ncn4c3Cc3cnnn3-c3cc(Cl)ccc3-4)=N2)cc1 [Compound 521] | < 100 nM | 20 to 50% | – | – |
| FC(F)(F)c1ccc2c(c1)-n1nncc1Cc1c(C#CC3(c4ccccc4)CC3)ncn1-2 [Compound 503] | < 100 nM | 5 to 20% | – | – |
| COCc1nnc2n1Cc1c(C#Cc3ncc(C)s3)ncn1-c1ccc(Cl)cc1-2 [Compound 607] | < 100 nM | 20 to 50% | – | – |
| CCc1cncc(C#Cc2ncn3c2Cn2c(COC)nnc2-c2cc(Cl)ccc2-3)c1 [Compound 604] | < 100 nM | > 50% | – | – |
| COc1ccc2c(c1)-n1nncc1Cc1c(C#Cc3ccc(OC)nc3)ncn1-2 [Compound 530] | < 100 nM | 5 to 20% | – | – |
| COCc1nnc2n1Cc1c(C#Cc3nc(C)cs3)ncn1-c1ccc(Cl)cc1-2 [Compound 605] | < 100 nM | > 50% | – | – |
| COCc1nnc2n1Cc1c(C#Cc3cc(C)cnn3)ncn1-c1ccc(Cl)cc1-2 [Compound 609] | 100 to 1000 nM | 20 to 50% | – | – |
| Cc1nc(-c2ncn3c2Cc2cnnn2-c2cc(Cl)ccc2-3)no1 [Compound 539] | < 100 nM | 5 to 20% | – | – |
| CCc1cncc(C#Cc2ncn3c2Cc2c(COC)nnn2-c2cc(Cl)ccc2-3)c1 [Compound 638] | < 100 nM | > 50% | – | – |
| COc1ccc([C@@H]2COC(c3ncn4c3Cc3cnnn3-c3cc(OC)ccc3-4)=N2)cc1 [Compound 520] | < 100 nM | 5 to 20% | – | – |
| COCc1nnn2c1Cc1c(C3=NC[C@H](c4ccc(Cl)cc4)O3)ncn1-c1ccc(Cl)cc1-2 [Compound 635] | < 100 nM | 5 to 20% | – | – |
| COCc1nnc2n1Cc1c(C#Cc3cnc(C)n3C)ncn1-c1ccc(Cl)cc1-2 [Compound 671] | < 100 nM | > 50% | – | – |
| Clc1ccc2c(c1)-n1nncc1Cc1c(C3=NC[C@H](c4ccccc4)O3)ncn1-2 [Compound 513] | < 100 nM | 20 to 50% | – | – |
| C[C@]1(c2ccccc2)COC(c2ncn3c2Cc2cnnn2-c2cc(Cl)ccc2-3)=N1 [Compound 623] | < 100 nM | 5 to 20% | – | – |
| COc1ccc2c(c1)-n1nncc1Cc1c(C#Cc3ccnn3C)ncn1-2 [Compound 669] | < 100 nM | > 50% | – | – |
| Brc1ccc2c(c1)-n1nncc1Cc1c(C3=N[C@H](c4ccccc4)CO3)ncn1-2 [Compound 505] | < 100 nM | 20 to 50% | – | – |
| COCc1nnc2n1Cc1c(C#Cc3cnc(C)n3C)ncn1-c1ccc(OC)cc1-2 [Compound 672] | < 100 nM | > 50% | – | – |
